Measured values as given in patent US11524937B2, “Indirubin derivatives, and uses thereof” (CITY OF HOPE, priority 2012, dated 2022).

Key:
[1] = test system: p-Stat5 (Y694) in KCL-22 CML cells; experiment: Western blot p-Stat5, KCL-22 CML cells; type: cell-based, human; conditions: 4 hours
Protocol: (§1) Human KCL-22 CML cells were obtained from the American Type Culture Collection (ATCC). Cells were cultured in RPMI-1640 media containing 10% fetal bovine serum (FBS). Imatinib-resistant human KCL-22 CML cells expressing the T315I mutant Bcr-Abl (KCL-22M) were derived from human KCL-22 CML cells (Yuan et al., 2010). Cells were grown in RPMI 1640 media supplemented with 10% FBS. Monoclonal antibodies to Abl protein and phosphotyrosine (p-Y) were obtained from BD Biosciences (San Diego, Calif.). Polyclonal antibodies to p-Stat5 (Y694) and p-Src family (Y419) were obtained from Cell Signaling Technologies (Cambridge, Mass.). Polyclonal antibodies to Stat5 were from Santa Cruz Biotechnology (Santa Cruz, Calif.). Monoclonal antibody to Src was obtained from Millipore (Billerica, Mass.).
(§2) Western analyses were performed as described previously with minor modification (Nam et al., 2005b). Briefly, KCL-22 CML and T315I KCL-22 CML cells were treated with IRDs. Whole-cell lysates were resolved by SDS-PAGE and immunoblotted with specific antibodies. Primary phospho-specific antibodies were incubated in TBS (pH 7.5) with 0.1% Tween-20 and 5% BSA with gentle agitation overnight at 4° C. […] Positive immuno-reactive proteins were detected using the ECL system (Pierce, Rockford, Ill.). […]

[2] = test system: p-Stat5 (Y694) in T315I KCL-22 CML cells; experiment: Western blot p-Stat5, T315I KCL-22 CML cells; type: cell-based, human; conditions: 4 hours
Protocol: as §1, §2

[3] = test system: p-Src in KCL-22 CML cells; experiment: Western blot p-Src, KCL-22 CML cells; type: cell-based, human; conditions: 1.0 μM
Protocol: as §1, §2

ABL1 = ABL1 (Homo sapiens, UniProt P00519); experiment: in vitro kinase assay, recombinant ABL1; type: biochemical; conditions: ABL versus Src, higher concentration for ABL
ABL1, sequence (P00519 whole entry): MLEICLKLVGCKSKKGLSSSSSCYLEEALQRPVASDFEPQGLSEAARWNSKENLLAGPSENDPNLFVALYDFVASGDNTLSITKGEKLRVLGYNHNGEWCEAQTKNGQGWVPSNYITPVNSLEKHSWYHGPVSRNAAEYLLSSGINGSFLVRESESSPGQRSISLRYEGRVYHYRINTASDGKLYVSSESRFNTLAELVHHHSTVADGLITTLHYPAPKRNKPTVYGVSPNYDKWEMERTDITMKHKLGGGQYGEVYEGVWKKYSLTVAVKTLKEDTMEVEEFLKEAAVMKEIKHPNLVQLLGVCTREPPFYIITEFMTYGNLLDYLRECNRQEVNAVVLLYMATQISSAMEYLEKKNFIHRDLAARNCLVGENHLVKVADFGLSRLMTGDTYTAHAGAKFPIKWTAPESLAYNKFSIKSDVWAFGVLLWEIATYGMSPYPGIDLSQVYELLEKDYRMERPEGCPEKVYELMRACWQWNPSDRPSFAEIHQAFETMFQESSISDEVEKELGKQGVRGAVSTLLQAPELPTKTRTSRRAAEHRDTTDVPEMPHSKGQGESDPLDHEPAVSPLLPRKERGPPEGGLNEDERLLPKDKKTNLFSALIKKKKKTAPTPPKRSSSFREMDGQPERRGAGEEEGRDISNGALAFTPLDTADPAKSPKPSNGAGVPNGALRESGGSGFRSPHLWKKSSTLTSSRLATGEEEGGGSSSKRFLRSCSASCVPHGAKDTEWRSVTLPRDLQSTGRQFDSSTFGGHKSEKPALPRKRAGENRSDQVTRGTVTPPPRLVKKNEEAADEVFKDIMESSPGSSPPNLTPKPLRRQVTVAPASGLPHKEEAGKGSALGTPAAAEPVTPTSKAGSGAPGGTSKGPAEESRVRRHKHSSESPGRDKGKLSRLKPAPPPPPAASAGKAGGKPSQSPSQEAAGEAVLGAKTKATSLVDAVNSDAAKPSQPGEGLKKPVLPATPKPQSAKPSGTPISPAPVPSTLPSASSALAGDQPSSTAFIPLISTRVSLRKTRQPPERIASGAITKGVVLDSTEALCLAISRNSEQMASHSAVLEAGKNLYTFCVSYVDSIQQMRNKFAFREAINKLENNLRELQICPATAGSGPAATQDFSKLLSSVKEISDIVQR
Protocol: The in vitro kinase assays of an IRD (IRD Nos. 10, 11, 13, 61, 70, 71, 79, 80, 83˜87 and 176) were carried out using recombinant proteins according to the procedure disclosed in Nam 2012 (Nam, S., Xie, J., Perkins, A., Ma, Y., Yang, F., Wu, J., Wang, Y., Xu, R. Z., Huang, W., Horne, D. A., and Jove, R. (2012) Novel synthetic derivatives of the natural product berbamine inhibit Jak2/Stat3 signaling and induce apoptosis of human melanoma cells, Molecular oncology), which is hereby incorporated by reference in its entirety, as if fully set forth herein.

[4] = test system: p-Bcr-Abl in T315I KCL-22 CML cells; experiment: Western blot p-Bcr-Abl, T315I KCL-22 CML cells; type: cell-based, human; conditions: 4 hours
Protocol: as §1, §2

[5] = test system: p-Src in T315I KCL-22 CML cells; experiment: Western blot p-Src, T315I KCL-22 CML cells; type: cell-based, human; conditions: 1.0 μM
Protocol: as §1, §2

[6] = test system: p-Bcr-Abl in KCL-22 CML cells; experiment: Western blot p-Bcr-Abl, KCL-22 CML cells; type: cell-based, human; conditions: 4 hours
Protocol: as §1, §2

[7] = test system: Imatinib-resistant human KCL-22 CML cells expressing the T315I mutant Bcr-Abl; experiment: Drug resistance of imatinib-resistant T315I KCL-22 CML cells; type: cell-based

Row | SMILES | tyrosyl phosphorylation of Stat5 ([1]; 5 μM) | total Stat5 levels [1] | tyrosyl phosphorylation of Stat5 ([2]; 5 μM) | total Stat5 levels [2] | autophosphorylation of Src [3] | concentration inhibiting ABL kinase activity relative to Src kinase activity in vitro (ABL1) | concentration that reduced levels of p-Bcr-Abl [4] | autophosphorylation of Src [5] | concentration that reduced levels of p-Bcr-Abl [6] | resistance of the cells to the drug [7]
1 | Cl.Cl.O=C1Nc2cc(Br)ccc2C1=C1Nc2ccccc2C1=NOCCN1CCNCC1 [compound 87] | substantially inhibited | unchanged | substantially inhibited | unchanged | strong reduction | about 15 fold | higher than 0.5 μM | strong reduction | higher than 0.5 μM | –
2 | Cc1cn(-c2cc(NC(=O)c3ccc(C)c(Nc4nccc(-c5cccnc5)n4)c3)cc(C(F)(F)F)c2)cn1 [nilotinib] | – | – | – | – | – | – | – | – | – | resist
